From patent EP0565377B1, “Therapeutic agents for use in the treatment of Parkinson's Disease” (Kyowa Hakko Kogyo Co., Ltd., priority 1992, dated 1993) come the findings set out here.

Each structure is given as a SMILES string. Read-outs that look alike come from different tables or passages of the source. A value given as a limit tells only on which side of the number the result lay.

For data set [1], the system named is Haloperidol-Induced Catalepsy. Kind of data set: Effect on haloperidol-induced catalepsy. The format is in vivo, male ddY mice. The settings on record: test compound 10 mg/kg orally; for inhibition in vivo at 10 mg/kg: Mus musculus, po, 1 h, rate of decrease in total score based on control group, read-out: Remission Rate (%); for Number of the Animals Showing Remission: of 5 mice, catalepsy score not more than 4 points; for Total Score: total catalepsy score of 5 mice (25 points at the full). On the procedure: The experiment was performed by using several groups of 5-weeks-old male ddY mice (weighing 22 to 24 g, Japan SLC), each group consisting of 5 mice. Haloperidol (Janssen Pharmaceutica) suspended in 0.3% CMC was intraperitoneally administered to each mouse at a dose of 1.0 mg/kg. Test compounds were suspended in 0.3% CMC or in injectable distilled water (Otsuka Pharmaceutical Co., Ltd.) containing Tween 80. L-DOPA (Kyowa Hakko Kogyo Co., Ltd.) and benserazide hydrochloride (Kyowa Hakko Kogyo Co., Ltd.) were suspended in 0.3% CMC. One hour after the haloperidol administration, the test compound suspensions and the control suspension [0.3% CMC or injectable distilled water (Otsuka Pharmaceutical Co., Ltd.) containing Tween 80] containing no test compound were orally administered to separate groups of the mice (0.1 ml per 10 g of body weight). One hour after the administration of the test compound, the forelimbs of each mouse and subsequently the hindlimbs of the same mouse were placed on a 4.5 cm-high, 1.0 cm-wide bar and catalepsy was estimated. All of the test compounds were orally administered at a dose of 10 mg/kg, and L-DOPA (100 mg/kg) and benserazide (25 mg/kg) were intraperitoneally administered together as a control experiment. The catalepsy score and the standard of judgment are shown below.
The effect of the compounds was evaluated by the total of the catalepsy scores of five mice in each group (25 points at the full). The groups wherein the total score was not more than 20 points were estimated to be effective. The number of the animals showing remission against catalepsy is the number of the mice for which the catalepsy score was not more than 4 points.

The test system of data set [2] is dd-strain male mice. Kind of data set: Acute toxicity test (minimum lethal dose, oral). Type of data set: in vivo. To be noted: oral administration, mortality seven days after administration, three mice per group. On the procedure: Test compounds were orally administered to groups of dd-strain male mice weighing 20±1 g, each group consisting of three mice. Seven days after the administration, minimum lethal dose (MLD) of each compound was determined by observing the mortality.

The mark [3] stands for this setting: Table 4-2, 0.3% Tween 80 control 25.

`CCCn1c(=O)c2c(nc(/C=C/c3ccc(OC)cc3OC)n2C)n(CCC)c1=O` [Compound 25, (E)-8-(2,4-dimethoxystyryl)-7-methyl-1,3-dipropylxanthine]: in data set [1] (Table 4-2), the inhibition in vivo at 10 mg/kg was found to be 52% and the “Number of the Animals Showing Remission” value came to 5. Besides, the “Total Score” value in data set [1] (setting [3]) was 12 points. The “MLD” value in data set [2] is above 300 mg/kg.
The like results for `CCCOc1ccc(/C=C/c2nc3c(c(=O)n(CCC)c(=O)n3CCC)n2C)cc1` [Compound 50, (E)-7-methyl-8-(4-propoxystyryl)-1,3-dipropylxanthine] were, in that order, 24%, 3, 19 points and above 100 mg/kg.
The like results for `CCCn1c(=O)c2c(nc(/C=C/c3ccc(C)c(C)c3)n2C)n(CCC)c1=O` [Compound 31, (E)-8-(3,4-dimethylstyryl)-7-methyl-1,3-dipropylxanthine] were, in that order, 28%, 4, 18 points and above 100 mg/kg.
For the compound `CCCn1c(=O)c2c(nc(/C=C/c3ccc(OCC)cc3)n2C)n(CCC)c1=O` [Compound 48, (E)-8-(4-ethoxystyryl)-7-methyl-1,3-dipropylxanthine], in data set [1] (Table 4-2), the inhibition in vivo at 10 mg/kg was determined as 76% and the “Number of the Animals Showing Remission” value is reported as 5. For the same compound, in data set [1] (setting [3]), the “Total Score” value is reported as 6 points. Further, the “MLD” value in data set [2] is given as above 100 mg/kg.
Regarding `CCCn1c(=O)c2c(nc(/C=C/c3cc(OC)c(OC)cc3OC)n2C)n(CCC)c1=O` [Compound 23, (E)-7-methyl-1,3-dipropyl-8-(2,4,5-trimethoxystyryl)xanthine], in data set [1] (Table 4-1), the inhibition in vivo at 10 mg/kg worked out at 28% and the “Number of the Animals Showing Remission” value amounted to 4. The “Total Score” value in data set [1] (Table 4-1, 0.3% CMC control 25) came out at 18 points. For the same compound, the “MLD” value in data set [2] is above 300 mg/kg.
For the compound `CCCn1c(=O)c2c(nc(/C=C/c3cc(OC)c(OC)c(OC)c3)n2C)n(CCC)c1=O` [Compound 5, (E)-7-methyl-1,3-dipropyl-8-(3,4,5-trimethoxystyryl)xanthine], in data set [1] (Table 4-1), the inhibition in vivo at 10 mg/kg was 28% and the “Number of the Animals Showing Remission” value amounted to 4. Besides, the “Total Score” value in data set [1] (Table 4-1, 0.3% CMC control 25) was 18 points. Moreover, in data set [2], the “MLD” value was above 300 mg/kg.
Turning to `CCCn1c(=O)c2[nH]c(/C=C/c3cc(Br)c(OC)c(OC)c3)nc2n(CCC)c1=O` [Compound 59, (E)-8-(3-bromo-4,5-dimethoxystyryl)-1,3-dipropylxanthine], in data set [1] (Table 4-2), the inhibition in vivo at 10 mg/kg stood at 24% and the “Number of the Animals Showing Remission” value came out at 5. Also, the “Total Score” value in data set [1] (setting [3]) is 19 points. In addition, in data set [2], the “MLD” value is listed as above 300 mg/kg.
For `CCCn1c(=O)c2c(nc(/C=C/c3ccc(O)c(O)c3)n2C)n(CCC)c1=O` [Compound 53, (E)-8-(3,4-dihydroxystyryl)-7-methyl-1,3-dipropylxanthine], in data set [1] (Table 4-2), the inhibition in vivo at 10 mg/kg was 20% and the “Number of the Animals Showing Remission” value amounted to 4. Further, the “Total Score” value in data set [1] (setting [3]) is 20 points. Also, the “MLD” value in data set [2] is recorded as above 100 mg/kg.
Take `CCCn1c(=O)c2c(nc(/C=C/c3ccc(OC)c(C)c3C)n2C)n(CCC)c1=O` [Compound 13, (E)-8-(4-methoxy-2,3-dimethylstyryl)-7-methyl-1,3-dipropylxanthine]: in data set [1] (Table 4-1), the inhibition in vivo at 10 mg/kg was found to be 80% and the “Number of the Animals Showing Remission” value came to 5. Besides, the “Total Score” value in data set [1] (Table 4-1, 0.3% CMC control 25) came out at 5 points. For the same compound, in data set [2], the “MLD” value is recorded as above 300 mg/kg.
For `CCCn1c(=O)c2[nH]c(/C=C/c3ccc4c(c3)OCCO4)nc2n(CCC)c1=O` [Compound 16, (E)-8-[2-(1,4-benzodioxan-6-yl)vinyl]-1,3-dipropylxanthine] the same measures were 20%, 4, 20 points and above 300 mg/kg.
